Assay results from US6689609B1, “Enhancing germination of plant somatic embryos by priming” (Cellfor Inc., priority 1999, dated 2004).
Like-named read-outs stand apart in the source and are kept apart here. Blank lines part the entries; values can stand above or below the compound they belong to.

Key:
[1] = system: interior spruce somatic embryos; assay type: in vivo, Picea glauca (Moench) Voss x P. engelmannii Parry ex Engelm.; conditions: for % with hyperhydricity: in vivo
Source text: The second study assessed the effects adding various osmotica to nutripriming solutions on subsequent germination and development performance. Mature somatic embryos of interior spruce (Picea glauca (Moench) Voss x P. engelmannii Parry ex Engelm.) genotype 23-2672 were desiccated with the HRHT treatment, and then divided into 10 groups of 160 somatic embryos per group. One group was not primed and served as the HRHT control treatment for this study. […] The nutripriming solutions and embryos were placed into 250-ml Kimax® baffled flasks. The nutripriming duration was 72 hrs at temperatures ranging between 20-23° C., and a 24-hr photoperiod of 30 μmol m^−2s^−1 photosynthetic photon flux.
At the completion of the nutripriming step, the nutriprimed embryos from each treatment were divided into 8 groups of 20 embryos and sown by hand onto vermiculite media in Sigma polycarbonate boxes. The liquid media in these germination boxes were either 3% w/v sucrose m24GMD or m24GMD without sucrose. The experiment design was a random complete block design for each media type. Each nutripriming treatment had 4 replicates of 20 embryos in each germination media type. The germination boxes were placed in a germination room and grown for two weeks under 50-70 μmol m^−2s^−1 photosynthetic photon flux of 16-hour photoperiod at an air temperature of 23° C. The germinants were then harvested and assessed for germination rates, hyperhydricity rates, shoot and root length. Germination was defined as germinants having a root longer than 2 mm, and elongated hypercotyl. Hyperhydricity was defined by the thickening of hypercotyl and watery appearance of the germinants, whether germinated or not germinated.

[2] = system: interior spruce somatic embryos; assay: Elevated sucrose levels (4-10% w/v) and extended nutripriming (3-5 days): ex vitro germination and growth of interior spruce genotypes 5-1378 and 107-2049; assay type: in vivo, Picea glauca (Moench) Voss x P. engelmannii Parry ex Engelm.
Experimental: Mature somatic embryos of interior spruce (Picea glauca (Moench) Voss x P. engelmannii Parry ex Engelm.) genotypes 5-1378 and 107-2049 t were desiccated with the HRHT treatment and stored at 4° C. Embryos were subsequently removed from storage and nutriprimed for one of 3, 4, or 5 days periods as previously described in ½ m24GMD liquid medium containing one of the following sucrose concentrations; 4, 6, 8, and 10% (all w/v). After the nutripriming treatments were completed, the embryos were sown ex vitro onto a peat-based polymer-bound horticultural growing substrate in 504-cell (4 ml/cell) styrofoam miniplug trays (Grow-Tech Inc., San Bautista, Calif.). The sown trays were then placed into a conventional non-sterile horticulture germination chamber in an environment-controlled growth room. The environmental conditions were 22-24° C. air temperature, 80-100% RH, 0.10-0.15% CO2, and a 16-hr photoperiod with 40-120 μmol m^−2s^−1 photosynthetic photon flux. Immediately after the trays containing ex vitro sown nutriprimed embryos were placed into the non-sterile germination chamber, they were misted with a ½ m24GMD nutrient solution amended with 3% w/v sucrose solution until the surfaces of the non-sterile growing substrates were well-wetted. Subsequently, the trays were misted with this solution daily for a 3-week germination period. Aseptic techniques or conditions were not used for application of the nutrient solutions, nor for the germination environment during the 2-week culture period. Furthermore, prophylactic applications of 0.1 g/l benlate, 0.05 g/l ampicillin plus 0.05 g/l penicillin G (or 0.1 ampicillin), and 5 ml/l Gnatrol® were applied at 5-day intervals to control fungi, bacteria, and fungus fly larvae.

[3] = germination media m24GMD (without sucrose), osmoticant levels as E220
[4] = germination media m24GMD plus 3% sucrose, osmoticant in m24GMD priming solution (w/v): 1% betaine, 1.65% fructose, glucose, mannitol, sorbitol, 3% lactose, maltose, sucrose, 10% PEG 4000, 72 hrs
[5] = germination media m24GMD plus 3% sucrose, osmoticant levels as E220
[6] = genotype 5-1378, 3% sucrose in nutripriming solution, 3 days priming
[7] = genotype 5-1378, 4% sucrose in nutripriming solution, 3 days priming
[8] = genotype 5-1378, 4% sucrose in nutripriming solution, 4 days priming
[9] = genotype 5-1378, 4% sucrose in nutripriming solution, 5 days priming
[10] = genotype 5-1378, 6% sucrose in nutripriming solution, 3 days priming
[11] = genotype 5-1378, 6% sucrose in nutripriming solution, 4 days priming
[12] = genotype 5-1378, 6% sucrose in nutripriming solution, 5 days priming
[13] = genotype 5-1378, 8% sucrose in nutripriming solution, 3 days priming
[14] = genotype 5-1378, 8% sucrose in nutripriming solution, 4 days priming
[15] = genotype 5-1378, 8% sucrose in nutripriming solution, 5 days priming
[16] = genotype 5-1378, 10% sucrose in nutripriming solution, 3 days priming
[17] = genotype 5-1378, 10% sucrose in nutripriming solution, 4 days priming
[18] = genotype 5-1378, 10% sucrose in nutripriming solution, 5 days priming
[19] = genotype 107-2049, 3% sucrose in nutripriming solution, 3 days priming
[20] = genotype 107-2049, 4% sucrose in nutripriming solution, 3 days priming
[21] = genotype 107-2049, 4% sucrose in nutripriming solution, 4 days priming
[22] = genotype 107-2049, 4% sucrose in nutripriming solution, 5 days priming
[23] = genotype 107-2049, 6% sucrose in nutripriming solution, 3 days priming
[24] = genotype 107-2049, 6% sucrose in nutripriming solution, 4 days priming
[25] = genotype 107-2049, 6% sucrose in nutripriming solution, 5 days priming
[26] = genotype 107-2049, 8% sucrose in nutripriming solution, 3 days priming
[27] = genotype 107-2049, 8% sucrose in nutripriming solution, 4 days priming
[28] = genotype 107-2049, 8% sucrose in nutripriming solution, 5 days priming
[29] = genotype 107-2049, 10% sucrose in nutripriming solution, 3 days priming
[30] = genotype 107-2049, 10% sucrose in nutripriming solution, 4 days priming
[31] = genotype 107-2049, 10% sucrose in nutripriming solution, 5 days priming

% with hyperhydricity [1]: 40.0 ± 23.2%
Compound: OC[C@H]1O[C@@](CO)(O[C@H]2O[C@H](CO)[C@@H](O)[C@H](O)[C@H]2O)[C@@H](O)[C@@H]1O [sucrose]
Germination % [1, 3]: 91.7 ± 8.3%
Root length [1, 3]: 2.4 ± 0.1 mm
Shoot length [1, 3]: 14.7 ± 0.3 mm
Germination % [1, 4]: 100%
Root length [1, 5]: 11.6 ± 0.9 mm
Shoot length [1, 5]: 18.1 ± 0.4 mm
Germination % [2, 6]: 83.3 ± 8.8%
Rooting % [2, 6]: 73.3 ± 8.8%
Germination % [2, 7]: 98.3 ± 1.7%
Rooting % [2, 7]: 86.7 ± 7.3%
Germination % [2, 8]: 96.7 ± 3.3%
Rooting % [2, 8]: 91.7 ± 4.4%
Germination % [2, 9]: 96.5 ± 1.8%
Rooting % [2, 9]: 91.5 ± 6.0%
Germination % [2, 10]: 91.7 ± 4.4%
Rooting % [2, 10]: 86.7 ± 3.3%
Germination % [2, 11]: 96.7 ± 3.3%
Rooting % [2, 11]: 90.0 ± 2.9%
Germination % [2, 12]: 98.3 ± 1.7%
Rooting % [2, 12]: 88.3 ± 4.4%
Germination % [2, 13]: 91.7 ± 4.4%
Rooting % [2, 13]: 66.7 ± 12.0%
Germination % [2, 14]: 100%
Rooting % [2, 14]: 91.7 ± 3.3%
Germination % [2, 15]: 95.0 ± 5.0%
Rooting % [2, 15]: 86.7 ± 8.3%
Germination % [2, 16]: 84.7 ± 2.9%
Rooting % [2, 16]: 52.5 ± 7.2%
Germination % [2, 17]: 100%
Rooting % [2, 17]: 88.3 ± 6.0%
Germination % [2, 18]: 98.3 ± 1.7%
Rooting % [2, 18]: 91.7 ± 4.4%
Germination % [2, 19]: 91.7 ± 4.4%
Rooting % [2, 19]: 68.3 ± 6.0%
Germination % [2, 20]: 90.0 ± 5.0%
Rooting % [2, 20]: 71.7 ± 8.8%
Germination % [2, 21]: 84.6 ± 6.2%
Rooting % [2, 21]: 62.3 ± 13.0%
Germination % [2, 22]: 93.3 ± 6.7%
Rooting % [2, 22]: 76.2 ± 4.5%
Germination % [2, 23]: 81.7 ± 3.3%
Rooting % [2, 23]: 66.7 ± 3.3%
Germination % [2, 24]: 85.8 ± 2.2%
Rooting % [2, 24]: 69.6 ± 6.1%
Germination % [2, 25]: 86.7 ± 3.3%
Rooting % [2, 25]: 70.0 ± 0.0%
Germination % [2, 26]: 76.7 ± 4.4%
Rooting % [2, 26]: 51.7 ± 4.4%
Germination % [2, 27]: 93.3 ± 4.4%
Rooting % [2, 27]: 88.3 ± 4.4%
Germination % [2, 28]: 93.3 ± 4.4%
Rooting % [2, 28]: 60.0 ± 0.0%
Germination % [2, 29]: 81.7 ± 6.7%
Rooting % [2, 29]: 36.7 ± 10.1%
Germination % [2, 30]: 90.0 ± 7.6%
Rooting % [2, 30]: 76.7 ± 8.3%
Germination % [2, 31]: 86.7 ± 1.7%
Rooting % [2, 31]: 51.7 ± 12.0%

% with hyperhydricity [1]: 86.3 ± 9.4%
Compound: O=C(CO)[C@@H](O)[C@H](O)[C@H](O)CO [fructose]
Germination % [1, 3]: 87.5 ± 7.8%
Root length [1, 3]: 2.1 ± 0.1 mm
Shoot length [1, 3]: 10.0 ± 0.3 mm
Germination % [1, 4]: 100%
Root length [1, 5]: 12.2 ± 0.8 mm
Shoot length [1, 5]: 13.5 ± 0.3 mm
